# How the values were obtained:
# MYPT1 = MYPT1 phosphorylation in 32P-labeled intact smooth muscle (rabbit bladder); format: cell-based; settings: carbachol stimulation
# ZIP-like-kinase = ZIP-like-kinase activity and phosphorylation in treated rabbit bladder smooth muscle (immunoprecipitates); format: cell-based
# [1] = tested on: ZIP-like-kinase (SMPP-1M associated kinase, MYPT-kinase); assay: In vitro kinase assay against the Thr697 peptide, native ZIP-like-kinase (MYPT-kinase) compared with ROK; format: biochemical, cow; settings: levels needed versus ROK
# Procedure: Kinase and phosphatase assays. Kinase assays included 10 μL of enzyme diluted in 25 mM Hepes, pH 7.4, 1 mM DTT, and 100 μM Thr^697 peptide. Reactions were started with addition of 20 μL Mg^2+ ATP (5 mM MgCl2 and 0.1 mM ATP (5000 cpm/nmol) and carried out at 25° C. Reactions were terminated after 20 min with the addition of 100 μL of 20 mM H3PO4. Aliquots (100 μL) of the reaction mixture were spotted on to P81 paper and washed four times with 20 mM H3PO4. The P81 paper was placed into 1.5 mL Eppendorf tubes and ^32P incorporation was determined by scintillation counting. Phosphatase assays were carried out as described (Shirazi et al, J. Biol. Chem. 269:31598-31606 (1994)).
# Purification of the SMPP-1M associated kinase. The SMPP-1M associated kinase was isolated from cow bladders following initial steps outlined for purification of SMPP-1M from pig bladder (Shirazi et al, J. Biol. Chem. 269:31598-31606 (1994)). Following extraction of the myofibrillar pellet, the extract was diluted with 2 volumes of buffer C (20 mM Tris, pH 7.5, 25 mM MgCl2, and 1 mM DTT with protease inhibitors), clarified by centrifugation (100,000 g, 45 min) and applied to a 5.0×10-cm column of ethylenediamine γ-linked ATP Sepharose equilibrated in buffer C. […] The purity of SMPP-1M kinase was assessed by SDS-PAGE and silver staining.
# ROK = settings: hypertensive mice; cited from earlier work
smiles,measurement,setting,value
C[N+](C)(C)CCOC(N)=O [carbachol],MYPT1 phosphorylation state (four phosphopeptides; major site Thr697),MYPT1,increased
same,ZIP-like-kinase phosphorylation and activation,ZIP-like-kinase,phosphorylated and activated
C[C@@H](N)[C@H]1CC[C@H](C(=O)Nc2ccncc2)CC1 [Y-27632],Inhibition of native ZIP-like-kinase (MYPT-kinase): levels relative to those for ROK,[1],200 fold
same,Blood pressure,ROK,decreased blood pressure
same,Inhibition of ZIP-like-kinase activity,"ZIP-like-kinase; 10 μM, carbachol and calyculin A treated bladder",significant inhibition
COC[C@@H]([C@H](O)[C@H](O)C(=O)NCC[C@H](C)c1nc(/C=C/C[C@@H]2O[C@]3(C[C@@H](O)[C@@H]2C)O[C@H]([C@H](C[C@H](O)[C@H](C)[C@H](O)[C@H](C)/C=C(C)/C(C)=C/C=C/C(C)=C\C#N)OC)[C@H](OP(=O)(O)O)C3(C)C)co1)N(C)C [calyculin A],Reduction of ZIP-like-kinase activation in the absence of calyculin A,ZIP-like-kinase; carbachol-treated bladder without calyculin A,about 50%
